{"source": "patent US20170003277A1", "about": "(priority 2015, published 2017)", "key": {"human PBMC": {"test_system": "human PBMC", "assay": "Immunological cell type enrichment for genes modulated by GA in human PBMC", "type": "in vivo", "design": "Score: scale not given here", "text": "Genome-wide expression profiles in cells from three different datasets in two different species (human, mouse) were studied. LIMMA was utilized to identify a genome-wide list of differentially expressed genes induced by GA in the primed and ex vivo stimulated mouse splenocytes, as well as in the THP-1 human monocyte cell line. Repeated-measures ANOVA was utilized to find a genome-wide list of genes modulated by GA in treated MS patients. Advanced enrichment algorithms were then applied to elucidate the pathways and cell types modulated by GA.\nIn addition to the shared induced effects discussed above, each system and platform clearly captured different aspects of GA's impact on the immune system. […] In human PBMCs, genes associated with immune cell types were modulated early in treatment (by month 3), including certain cell types affected in prior systems, but also distinct cell types, such as megakaryocytes and myeloid progenitors (Table 11)."}, "[1]": {"test_system": "THP-1 human monocyte cell line", "assay": "Microarray gene expression in THP-1 cells, Polimunol vs Copaxone, 6 hours (Example 9)", "type": "cell-based", "text": "Based on previous power calculations (using the R package ssize.fdr), to detect differentially-expressed genes with a fold-change between treatments of as low as 1.3 with 80% power the experiment was designed to include six replicates of each condition. The order of sample processing was randomized with respect to treatment in order to avoid creating confounding batch effects.\nRNA was extracted and expression profiled genome-wide using the Affymetrix U133 Plus 2.0 chip. Three batches of Copaxone® and one batch of Polimunol were comparatively tested in six replicates each. RNA processing was performed by Expression Analysis (NC, USA).\nDifferentially-expressed probesets were identified across conditions using linear models for microarray data (LIMMA). For comparing Copaxone® (“GA”) and purported generic, comparisons were corrected for mannitol control (i.e., [GA vs mannitol] was compared to [purported generic vs mannitol]). Probesets were filtered by calls of presence on the chip for the relevant samples in the comparison (to be considered present at a given timepoint, a probeset was required to have on average a call of present or marginal across the relevant samples at that timepoint). Probesets were mapped to genes using the U133 Plus 2.0 chip annotation from Affymetrix."}, "[2]": {"assay": "Long-term animal toxicity studies of TV-5010", "design": "species or system rats and monkeys", "details": "in vivo"}, "[3]": {"details": "BASO1.rnk, Upregulated, Cluster 2"}, "[4]": {"details": "BCELLA1.rnk, Downregulated, Cluster 0"}, "[5]": {"details": "BCELLA2.rnk, Downregulated, Cluster 0"}, "[6]": {"details": "BCELLA3.rnk, Downregulated, Cluster 0"}, "[7]": {"details": "BCELLA4.rnk, Downregulated, Cluster 0"}, "[8]": {"details": "CMP.rnk, Upregulated, Cluster 4"}, "[9]": {"details": "EOS2.rnk, Upregulated, Cluster 2"}, "[10]": {"details": "ERY1.rnk, Upregulated, Cluster 2"}, "[11]": {"details": "ERY1.rnk, Upregulated, Cluster 4"}, "[12]": {"details": "ERY2.rnk, Upregulated, Cluster 2"}, "[13]": {"details": "ERY2.rnk, Upregulated, Cluster 4"}, "[14]": {"details": "ERY3.rnk, Upregulated, Cluster 2"}, "[15]": {"details": "ERY3.rnk, Upregulated, Cluster 4"}, "[16]": {"details": "ERY4.rnk, Upregulated, Cluster 2"}, "[17]": {"details": "ERY4.rnk, Upregulated, Cluster 4"}, "[18]": {"details": "ERY5.rnk, Upregulated, Cluster 2"}, "[19]": {"details": "ERY5.rnk, Upregulated, Cluster 4"}, "[20]": {"details": "GMP.rnk, Upregulated, Cluster 4"}, "[21]": {"details": "GRAN1.rnk, Upregulated, Cluster 2"}, "[22]": {"details": "GRAN2.rnk, Upregulated, Cluster 4"}, "[23]": {"details": "HSC3.rnk, Upregulated, Cluster 4"}, "[24]": {"details": "MEGA1.rnk, Upregulated, Cluster 4"}, "[25]": {"details": "MEGA2.rnk, Upregulated, Cluster 0"}, "[26]": {"details": "MEGA2.rnk, Upregulated, Cluster 4"}, "[27]": {"details": "MEP.rnk, Upregulated, Cluster 2"}, "[28]": {"details": "PRE_BCELL3.rnk, Upregulated, Cluster 2"}}, "data": [{"substance": "glatiramer acetate [Copaxone®]", "values": [{"measurement": "Score", "setting": "human PBMC; [3]", "value": 87.3}, {"measurement": "p.val", "setting": "human PBMC; [3]", "value": 0.00322}, {"measurement": "Score", "setting": "human PBMC; [4]", "value": "−19.11"}, {"measurement": "p.val", "setting": "human PBMC; [4]", "value": 0.002737}, {"measurement": "Score", "setting": "human PBMC; [5]", "value": "−25.77"}, {"measurement": "p.val", "setting": "human PBMC; [5]", "value": 0.0004201}, {"measurement": "Score", "setting": "human PBMC; [6]", "value": "−20.11"}, {"measurement": "p.val", "setting": "human PBMC; [6]", "value": 0.001385}, {"measurement": "Score", "setting": "human PBMC; [7]", "value": "−21.51"}, {"measurement": "p.val", "setting": "human PBMC; [7]", "value": 0.002538}, {"measurement": "Score", "setting": "human PBMC; [8]", "value": 23.19}, {"measurement": "p.val", "setting": "human PBMC; [8]", "value": 0.002214}, {"measurement": "Score", "setting": "human PBMC; [9]", "value": 62.69}, {"measurement": "p.val", "setting": "human PBMC; [9]", "value": 0.002286}, {"measurement": "Score", "setting": "human PBMC; [10]", "value": 28.25}, {"measurement": "p.val", "setting": "human PBMC; [10]", "value": 0.003043}, {"measurement": "Score", "setting": "human PBMC; [11]", "value": 45}, {"measurement": "p.val", "setting": "human PBMC; [11]", "value": 0.002587}, {"measurement": "Score", "setting": "human PBMC; [12]", "value": 32.83}, {"measurement": "p.val", "setting": "human PBMC; [12]", "value": "8.43E−05"}, {"measurement": "Score", "setting": "human PBMC; [13]", "value": 47.25}, {"measurement": "p.val", "setting": "human PBMC; [13]", "value": "4.70E−06"}, {"measurement": "Score", "setting": "human PBMC; [14]", "value": 84.62}, {"measurement": "p.val", "setting": "human PBMC; [14]", "value": 0.0002869}, {"measurement": "Score", "setting": "human PBMC; [15]", "value": 90.02}, {"measurement": "p.val", "setting": "human PBMC; [15]", "value": 0.009061}, {"measurement": "Score", "setting": "human PBMC; [16]", "value": 69.44}, {"measurement": "p.val", "setting": "human PBMC; [16]", "value": 0.0001417}, {"measurement": "Score", "setting": "human PBMC; [17]", "value": 77.38}, {"measurement": "p.val", "setting": "human PBMC; [17]", "value": 0.001966}, {"measurement": "Score", "setting": "human PBMC; [18]", "value": 64.23}, {"measurement": "p.val", "setting": "human PBMC; [18]", "value": "9.88E−07"}, {"measurement": "Score", "setting": "human PBMC; [19]", "value": 73.42}, {"measurement": "p.val", "setting": "human PBMC; [19]", "value": 0.0009808}, {"measurement": "Score", "setting": "human PBMC; [20]", "value": 33.13}, {"measurement": "p.val", "setting": "human PBMC; [20]", "value": 0.0001427}, {"measurement": "Score", "setting": "human PBMC; [21]", "value": 55.17}, {"measurement": "p.val", "setting": "human PBMC; [21]", "value": 0.0005577}, {"measurement": "Score", "setting": "human PBMC; [22]", "value": 35.18}, {"measurement": "p.val", "setting": "human PBMC; [22]", "value": 0.00875}, {"measurement": "Score", "setting": "human PBMC; [23]", "value": 45.41}, {"measurement": "p.val", "setting": "human PBMC; [23]", "value": 0.0002875}, {"measurement": "Score", "setting": "human PBMC; [24]", "value": 38.05}, {"measurement": "p.val", "setting": "human PBMC; [24]", "value": "4.66E−09"}, {"measurement": "Score", "setting": "human PBMC; [25]", "value": 32.43}, {"measurement": "p.val", "setting": "human PBMC; [25]", "value": "1.24E−12"}, {"measurement": "Score", "setting": "human PBMC; [26]", "value": 64.46}, {"measurement": "p.val", "setting": "human PBMC; [26]", "value": "4.41E−12"}, {"measurement": "Score", "setting": "human PBMC; [27]", "value": 30.54}, {"measurement": "p.val", "setting": "human PBMC; [27]", "value": 0.009388}, {"measurement": "Score", "setting": "human PBMC; [28]", "value": 57.94}, {"measurement": "p.val", "setting": "human PBMC; [28]", "value": "3.98E−08"}, {"measurement": "IL10RA expression relative to mannitol", "setting": "[1]; adjusted p<2.8e-14", "value": "significantly upregulated"}, {"measurement": "IL1RN expression relative to mannitol", "setting": "[1]; adjusted p<2.8e-10", "value": "significantly upregulated"}, {"measurement": "IL10 expression relative to mannitol", "setting": "[1]; probeset called absent, p<0.029", "value": "nominally upregulated"}, {"measurement": "Toxicity in long-term animal studies", "setting": "[2]", "value": "never seen"}]}]}
